# Measured values reported in patent publication US9611277B2 (Janssen Pharmaceutica NV, priority 2013, dated 2017).
# Read-outs that look alike come from different tables or passages of the source.
# Assays:
# rat orexin 1 receptor = rat orexin 1 receptor (Rattus norvegicus, UniProt P56718); test: Rat orexin 1 receptor radioligand binding; details: read-out: rOX1 Ki
# How it was run: (§1)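 Competition binding with the tritiated thiazolyl-pyrrolidinyl-methanone radioligand in PBS on homogenized rat or human OX1R-expressing cell suspensions, ≤0.1% DMSO; nonspecific binding defined with 10 μM almorexant. Bound radioactivity read by scintillation after filtration; IC50 from one-site competition fit, converted to Ki using pre-determined radioligand Kd.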
# human orexin 2 receptor = human orexin 2 receptor (Homo sapiens (Human), UniProt O43614); test: Human orexin 2 receptor radioligand binding; details: read-out: hOX2 Ki
# How it was run: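 HEK293 cells stably expressing human OX2 receptor, homogenized, incubated with [3H]-EMPA and compounds (DMSO ≤0.1%); nonspecific binding with 10 μM almorexant. Filter-bound radioactivity counted by scintillation; IC50 from one-site competition fit of triplicates, Ki from IC50 and predetermined radioligand Kd, averaged over 2-20 runs.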
# human orexin 1 receptor = human orexin 1 receptor (Homo sapiens, UniProt O43613); test: Human orexin 1 receptor radioligand binding; details: read-out: hOX1 Ki
# How it was run: as §1
# [1] = rat orexin 1 receptor, averages of 2-20 runs
# [2] = human orexin 2 receptor, averages of 2-20 runs
# [3] = human orexin 1 receptor, averages of 2-20 runs
# Chain of human orexin 2 receptor (O43614 whole entry): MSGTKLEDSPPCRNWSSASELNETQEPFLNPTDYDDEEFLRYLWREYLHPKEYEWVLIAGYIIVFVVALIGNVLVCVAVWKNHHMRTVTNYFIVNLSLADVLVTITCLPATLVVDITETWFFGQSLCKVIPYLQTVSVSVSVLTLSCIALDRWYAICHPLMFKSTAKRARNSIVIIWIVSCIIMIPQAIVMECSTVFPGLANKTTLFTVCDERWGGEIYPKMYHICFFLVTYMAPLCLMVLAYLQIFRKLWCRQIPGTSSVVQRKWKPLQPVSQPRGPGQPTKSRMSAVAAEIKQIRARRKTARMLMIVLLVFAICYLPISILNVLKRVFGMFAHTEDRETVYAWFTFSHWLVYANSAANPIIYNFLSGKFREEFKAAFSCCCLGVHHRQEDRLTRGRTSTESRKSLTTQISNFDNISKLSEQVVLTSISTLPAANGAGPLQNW
Compound,Ki (rat orexin 1 receptor; [1]) [nM],Ki (human orexin 2 receptor; [2]) [nM],Ki (human orexin 1 receptor; [3]) [nM],Ki (rat orexin 1 receptor) [nM],Ki (human orexin 2 receptor) [nM],Ki (human orexin 1 receptor) [nM]
"O=C(c1ccccc1-c1ncccn1)N1C[C@@H]2CC[C@H]1[C@H](Nc1cnc(C(F)(F)F)cn1)C2 [Example 280, (2-(pyrimidin-2-yl)phenyl)((1S,4R,6R)-6-((5-(trifluoromethyl)pyrazin-2-yl)amino)-2-azabicyclo[2.2.2]octan-2-yl)methanone]",7,189,4,–,–,–
"O=C(c1ccccc1-n1nccn1)N1C[C@H]2C[C@@H](Oc3ccc4cccnc4n3)[C@@H]1C2 [Example 287, ((1S,4R,6R)-6-((1,8-naphthyridin-2-yl)oxy)-2-azabicyclo[2.2.1]heptan-2-yl)(2-(2H-1,2,3-triazol-2-yl)phenyl)methanone]",155,2700,226,–,–,–
"Cc1cnc(C(=O)N2C[C@H]3C[C@@H](Oc4ccc(C(F)F)cn4)[C@@H]2C3)c(-c2ncccn2)c1 [Example 288, ((1S,4R,6R)-6-((5-(difluoromethyl)pyridin-2-yl)oxy)-2-azabicyclo[2.2.1]heptan-2-yl)(5-methyl-3-(pyrimidin-2-yl)pyridin-2-yl)methanone]",29,5100,39,–,–,–
"Cc1cnc(-c2ncccn2)c(C(=O)N2C[C@H]3C[C@@H](Oc4ccc(C(F)(F)F)cn4)[C@@H]2C3)c1 [Example 290, (5-methyl-2-(pyrimidin-2-yl)pyridin-3-yl)((1S,4R,6R)-6-((5-(trifluoromethyl)pyridin-2-yl)oxy)-2-azabicyclo[2.2.1]heptan-2-yl)methanone]",97,> 10000,188,–,–,–
O=C(c1cc(F)ccc1-c1ncco1)N1C[C@H]2C[C@@H](Oc3ccc(C(F)(F)F)cn3)[C@@H]1C2 [Example 293],16,535,26,–,–,–
Cc1cnc(C(=O)N2C[C@H]3C[C@@H](Oc4ccc(C(F)(F)F)cn4)[C@@H]2C3)c(-n2ccnn2)c1 [Example 294],166,1400,580,–,–,–
COc1ccc(C(=O)N2C[C@H]3C[C@@H](Oc4ccc(C(F)(F)F)cn4)[C@@H]2C3)c(-c2ncccn2)c1 [Example 295],19,5800,34,–,–,–
O=C(c1ccccc1-n1nccn1)N1C[C@H]2C[C@@H](Oc3ncc(Cl)cn3)[C@@H]1C2 [Example 300],92,3700,112,–,–,–
"(3-fluoro-2-(pyrimidin-2-yl)phenyl)((1S,4R,6R)-6-((5-(trifluoromethyl)pyrazin-2-yl)amino)-2-azabicyclo[2.2.2]octan-2-yl)methanone [Example 80]",9,456,7,–,–,–
"((1S,4S,6R)-6-((5-chloropyrimidin-2-yl)amino)-2-azabicyclo[2.2.1]heptan-2-yl)(2-(5-fluoropyrimidin-2-yl)phenyl)methanone [Example 241]",–,–,–,21,971,12
"((1S,4S,6R)-6-((5-chloropyrimidin-2-yl)amino)-2-azabicyclo[2.2.1]heptan-2-yl)(5-fluoro-2-(pyrimidin-2-yl)phenyl)methanone [Example 238]",20,–,8,–,991,–

# Continued by falling Ki (rat orexin 1 receptor; [1]), values first:
Ki (rat orexin 1 receptor; [1]) [nM],Ki (human orexin 2 receptor; [2]) [nM],Ki (human orexin 1 receptor; [3]) [nM],Compound,Ki (rat orexin 1 receptor) [nM],Ki (human orexin 2 receptor) [nM],Ki (human orexin 1 receptor) [nM]
117,6000,215,"Cc1ccc(-c2ncccn2)c(C(=O)N2C[C@H]3C[C@@H](Oc4ncc(Cl)cn4)[C@@H]2C3)n1 [Example 285, ((1S,4R,6R)-6-((5-chloropyrimidin-2-yl)oxy)-2-azabicyclo[2.2.1]heptan-2-yl)(6-methyl-3-(pyrimidin-2-yl)pyridin-2-yl)methanone]",–,–,–
81,> 10000,65,"Cc1cnc(C(=O)N2C[C@@H]3CC[C@H]2[C@H](Oc2cnc(C(F)(F)F)cn2)C3)c(-c2ncccn2)c1 [Example 282, (5-methyl-3-(pyrimidin-2-yl)pyridin-2-yl)((1S,4R,6R)-6-((5-(trifluoromethyl)pyrazin-2-yl)oxy)-2-azabicyclo[2.2.2]octan-2-yl)methanone]",–,–,–
45,5600,47,"O=C(c1cccc(F)c1-c1ncccn1)N1C[C@H]2C[C@@H](Oc3ncc(Cl)cn3)[C@@H]1C2 [Example 284, ((1S,4R,6R)-6-((5-chloropyrimidin-2-yl)oxy)-2-azabicyclo[2.2.1]heptan-2-yl)(3-fluoro-2-(pyrimidin-2-yl)phenyl)methanone]",–,–,–
43,4200,82,"Cc1noc(-c2cc(F)ccc2C(=O)N2C[C@H]3C[C@@H](Oc4ccc(C(F)(F)F)cn4)[C@@H]2C3)n1 [Example 291, (4-fluoro-2-(3-methyl-1,2,4-oxadiazol-5-yl)phenyl)((1S,4R,6R)-6-((5-(trifluoromethyl)pyridin-2-yl)oxy)-2-azabicyclo[2.2.1]heptan-2-yl)methanone]",–,–,–
24,> 10000,29,Cc1cnc(C(=O)N2C[C@H]3C[C@@H](Oc4ccc(C(F)(F)F)cn4)[C@@H]2C3)c(-c2ncccn2)c1 [Example 298],–,–,–
21,> 10000,27,"Cc1cnc(C(=O)N2C[C@@H]3CC[C@H]2[C@H](Oc2ncc(C(F)(F)F)cc2F)C3)c(-c2ncccn2)c1 [Example 283, ((1S,4R,6R)-6-((3-fluoro-5-(trifluoromethyl)pyridin-2-yl)oxy)-2-azabicyclo[2.2.2]octan-2-yl)(5-methyl-3-(pyrimidin-2-yl)pyridin-2-yl)methanone]",–,–,–
19,673,40,"O=C(c1c(F)cccc1-c1ncco1)N1C[C@H]2C[C@@H](Oc3ccc(C(F)(F)F)cn3)[C@@H]1C2 [Example 292, (2-fluoro-6-(oxazol-2-yl)phenyl)((1S,4R,6R)-6-((5-(trifluoromethyl)pyridin-2-yl)oxy)-2-azabicyclo[2.2.1]heptan-2-yl)methanone]",–,–,–
11,177,13,"O=C(c1c(F)cccc1-c1ncccn1)N1C[C@@H]2CC[C@H]1[C@H](Nc1cnc(C(F)(F)F)cn1)C2 [Example 279, (2-fluoro-6-(pyrimidin-2-yl)phenyl)((1S,4R,6R)-6-((5-(trifluoromethyl)pyrazin-2-yl)amino)-2-azabicyclo[2.2.2]octan-2-yl)methanone]",–,–,–
10,606,10,O=C(c1ccccc1-c1ncccn1)N1C[C@H]2C[C@@H](Oc3ccc(C(F)(F)F)cn3)[C@@H]1C2 [Example 297],–,–,–
8,474,14,O=C(c1ncccc1-c1ncccn1)N1C[C@H]2C[C@@H](Oc3ccc(C(F)(F)F)cn3)[C@@H]1C2 [Example 296],–,–,–
5,336,19,"O=C(c1cccc(F)c1-c1ncccn1)N1C[C@@H]2CC[C@H]1[C@H](Oc1ncc(C(F)(F)F)cc1Cl)C2 [Example 281, ((1S,4R,6R)-6-((3-chloro-5-(trifluoromethyl)pyridin-2-yl)oxy)-2-azabicyclo[2.2.2]octan-2-yl)(3-fluoro-2-(pyrimidin-2-yl)phenyl)methanone]",–,–,–
